Source: ChEMBL document CHEMBL1201862, “PubChem BioAssay data set” (2004)
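Results reflect a 48-hour exposure of cells in 96-well plates to compound at five concentrations. GI50 marks 50% less growth.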 Activity calls are given as the source filed them. No stated cut-off is given here; in the data, active = GI50 up to about 1.1 µM and inactive = higher.

Assays:
Experiment in all cases: NCI-60 cell line screen, 48 h
HCC 2998 = test system: HCC 2998
HCT-15 = test system: HCT-15
HT-29 = test system: HT-29
KM12 = test system: KM12
LOX IMVI = test system: LOX IMVI
Malme-3M = test system: Malme-3M
NCI-H226 = test system: NCI-H226
RPMI-8226 = test system: RPMI-8226
RXF 393 = test system: RXF 393
SF-295 = test system: SF-295
SK-MEL-2 = test system: SK-MEL-2
SNB-19 = test system: SNB-19
SNB-75 = test system: SNB-75
TK-10 = test system: TK-10
UO-31 = test system: UO-31
OVCAR-5 = test system: OVCAR-5
UACC-257 = test system: UACC-257

SMILES | GI50 (HCC 2998) | GI50 (HCT-15) [µM] | GI50 (HT-29) | GI50 (KM12) | GI50 (LOX IMVI) | GI50 (Malme-3M) | GI50 (NCI-H226) | GI50 (RPMI-8226) | GI50 (RXF 393) | GI50 (SF-295) | GI50 (SK-MEL-2) | GI50 (SNB-19) | GI50 (SNB-75) | GI50 (TK-10) | GI50 (UO-31) | GI50 (OVCAR-5) | GI50 (UACC-257)
COc1ccc2c(c1)CCc1c-2nc2cc3c(cc2c1O)OCO3 | > 100 µM (inactive) | > 100 | > 100 µM (inactive) | > 100 µM (inactive) | > 100 µM (inactive) | > 100 µM (inactive) | > 100 µM (inactive) | > 100 µM (inactive) | > 100 µM (inactive) | > 100 µM (inactive) | > 100 µM (inactive) | > 100 µM (inactive) | > 100 µM (inactive) | > 100 µM (inactive) | > 100 µM (inactive) |  | 
CCOC(=O)C=C1CCN(C(=O)c2ccccc2)CC1 | > 100 µM (inactive) | > 100 | > 100 µM (inactive) | > 100 µM (inactive) | > 100 µM (inactive) | > 100 µM (inactive) |  | > 100 µM (inactive) | > 100 µM (inactive) | > 100 µM (inactive) | < 0.01 µM (active) | > 100 µM (inactive) | > 100 µM (inactive) | > 100 µM (inactive) | > 100 µM (inactive) | > 100 µM (inactive) | > 100 µM (inactive)
Cc1cc(N(CCC#N)S(=O)(=O)c2ccccc2)ccc1/C=C1\N=C(c2ccc(Cl)cc2)OC1=O | > 100 µM (inactive) | > 100 | > 100 µM (inactive) | > 100 µM (inactive) | > 100 µM (inactive) | > 100 µM (inactive) | 38.1 µM (inactive) | > 100 µM (inactive) | > 100 µM (inactive) | > 100 µM (inactive) | > 100 µM (inactive) | > 100 µM (inactive) |  |  | > 100 µM (inactive) | > 100 µM (inactive) | > 100 µM (inactive)
CN(O)C(=O)Cc1ccccc1 | > 100 µM (inactive) |  | > 100 µM (inactive) | > 100 µM (inactive) | > 100 µM (inactive) | > 100 µM (inactive) | > 100 µM (inactive) | > 100 µM (inactive) | > 100 µM (inactive) | > 100 µM (inactive) |  | > 100 µM (inactive) | 67 µM (inactive) | > 100 µM (inactive) | > 100 µM (inactive) | > 100 µM (inactive) | > 100 µM (inactive)
COC(=O)C(C(=O)C(=O)Nc1ccccc1OC)c1csc(-n2nc(-c3ccccc3)cc2-c2ccccc2)n1 (stereo not given) | > 100 µM (inactive) | > 100 | 59.3 µM (inactive) | 95.9 µM (inactive) | > 100 µM (inactive) | > 100 µM (inactive) | > 100 µM (inactive) | > 100 µM (inactive) | 89.5 µM (inactive) |  |  | > 100 µM (inactive) | 8.97 µM (inactive) | > 100 µM (inactive) | 54.7 µM (inactive) | > 100 µM (inactive) | > 100 µM (inactive)
COC(=O)C(=O)C(C#N)c1cccc2ccccc12 (stereo not given) | > 100 µM (inactive) | > 100 | > 100 µM (inactive) | 22.9 µM (inactive) | > 100 µM (inactive) | > 100 µM (inactive) | > 100 µM (inactive) | > 100 µM (inactive) |  | > 100 µM (inactive) |  | > 100 µM (inactive) | 97.3 µM (inactive) |  | > 100 µM (inactive) | > 100 µM (inactive) | > 100 µM (inactive)
COc1ccc2c(c1)N1CCc3cc(OC)c(OC)cc3C1C2 (stereo not given) | 51.1 µM (inactive) |  | 70.3 µM (inactive) | 89.1 µM (inactive) | 98.6 µM (inactive) | 30.5 µM (inactive) | 35.5 µM (inactive) |  | 65 µM (inactive) | 88.7 µM (inactive) | 87.5 µM (inactive) | > 100 µM (inactive) |  | > 100 µM (inactive) | 85.9 µM (inactive) |  | 57.9 µM (inactive)
O=C1[C@@H]2C(c3ccncc3)=NO[C@@H]2C(=O)N1c1ccc(Cc2ccc(N3C(=O)[C@H]4C(c5ccncc5)=NO[C@H]4C3=O)cc2)cc1 | > 100 µM (inactive) | > 100 | > 100 µM (inactive) | > 100 µM (inactive) | > 100 µM (inactive) | 99.1 µM (inactive) | 73.8 µM (inactive) | > 100 µM (inactive) | > 100 µM (inactive) | > 100 µM (inactive) | > 100 µM (inactive) |  | > 100 µM (inactive) | > 100 µM (inactive) | > 100 µM (inactive) | > 100 µM (inactive) | > 100 µM (inactive)
COC(=O)N/N=C(\C)C(CN1CCCCC1)C(C1=C(O)c2ccccc2OC1)c1ccccc1 (stereo not given) |  | > 100 | > 100 µM (inactive) | > 100 µM (inactive) | > 100 µM (inactive) | > 100 µM (inactive) | > 100 µM (inactive) | > 100 µM (inactive) | 17.9 µM (inactive) | > 100 µM (inactive) | > 100 µM (inactive) | > 100 µM (inactive) | 95.7 µM (inactive) | > 100 µM (inactive) | 72.4 µM (inactive) | > 100 µM (inactive) | > 100 µM (inactive)
